IC50 data for 26 compounds are collected here from ChEMBL document CHEMBL4184206, “Design, synthesis and evaluate of novel dual FGFR1 and HDAC inhibitors bearing an indazole scaffold” (Bioorg Med Chem, 2018).

Bounds are passed on as bounds.

For experiment [1], the target named is T1, Protein deacetylase HDAC6 (Homo sapiens, UniProt Q9UBN7).
T1 sequence (Q9UBN7 whole entry): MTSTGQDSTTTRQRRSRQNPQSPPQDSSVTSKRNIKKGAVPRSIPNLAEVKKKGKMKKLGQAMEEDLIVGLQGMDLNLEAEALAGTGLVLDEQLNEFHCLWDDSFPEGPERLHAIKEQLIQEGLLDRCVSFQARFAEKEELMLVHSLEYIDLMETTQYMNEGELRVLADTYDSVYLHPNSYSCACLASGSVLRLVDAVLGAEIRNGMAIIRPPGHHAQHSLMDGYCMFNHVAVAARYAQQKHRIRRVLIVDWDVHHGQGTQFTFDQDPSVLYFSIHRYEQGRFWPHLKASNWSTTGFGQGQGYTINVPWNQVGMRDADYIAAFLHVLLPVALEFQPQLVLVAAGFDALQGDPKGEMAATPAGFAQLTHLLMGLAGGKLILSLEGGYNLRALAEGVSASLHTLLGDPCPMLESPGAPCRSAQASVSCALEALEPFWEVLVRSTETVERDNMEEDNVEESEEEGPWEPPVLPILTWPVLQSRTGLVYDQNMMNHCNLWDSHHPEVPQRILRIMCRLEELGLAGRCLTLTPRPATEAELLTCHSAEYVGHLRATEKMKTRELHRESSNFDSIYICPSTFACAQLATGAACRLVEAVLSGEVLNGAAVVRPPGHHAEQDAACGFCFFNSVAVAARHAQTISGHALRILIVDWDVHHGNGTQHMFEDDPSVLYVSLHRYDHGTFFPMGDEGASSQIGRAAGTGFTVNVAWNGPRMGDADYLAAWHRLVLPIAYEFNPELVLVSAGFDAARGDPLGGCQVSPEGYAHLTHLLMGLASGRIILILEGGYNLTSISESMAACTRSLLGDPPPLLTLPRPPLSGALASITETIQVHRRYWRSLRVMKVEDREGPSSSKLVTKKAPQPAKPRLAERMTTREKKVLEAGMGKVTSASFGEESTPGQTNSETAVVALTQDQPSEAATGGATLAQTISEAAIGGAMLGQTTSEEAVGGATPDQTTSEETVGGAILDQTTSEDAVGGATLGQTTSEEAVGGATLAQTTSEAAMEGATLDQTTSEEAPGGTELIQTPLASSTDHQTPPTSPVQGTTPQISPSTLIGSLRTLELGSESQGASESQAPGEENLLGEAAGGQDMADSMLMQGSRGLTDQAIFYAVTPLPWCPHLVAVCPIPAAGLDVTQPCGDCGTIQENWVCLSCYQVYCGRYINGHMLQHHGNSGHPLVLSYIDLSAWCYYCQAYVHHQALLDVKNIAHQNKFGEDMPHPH
Briefly: Inhibition of HDAC6 (unknown origin) preincubated for 10 mins followed by Ac-Leu-GlyLys(Ac)-AMC substrate addition measured after 30 mins by fluorescence based assay.

In the next experiment the test system is MCF7. The experiment is described as follows: Antiproliferative activity against human MCF7 cells after 48 hrs by CCK-8 assay. The following applies: MCF7, 48 h. (Tetrazolium dyes change colour on reduction, which living cells bring about.)

As to `O=C(NO)c1ccc(C(=O)Nc2n[nH]c3cc(-c4ccccc4F)ccc23)cc1`, the values for the IC50 (in experiment [1]; with MCF7) were 65 nM and 45000 nM, respectively.

`CCN1CCN(c2ccc(C(=O)Nc3n[nH]c4cc(-c5cccc(OC)c5F)ccc34)cc2)CC1` returned a half-inhibitory concentration (IC50) with MCF7 of 40.5 nM. On to `O=C(NO)c1ccc(C(=O)Nc2n[nH]c3cc(-c4cccc(Cl)c4)ccc23)cc1`, for which the IC50 in experiment [1] was 69 nM; with MCF7, more than 100000 nM. With `COc1ccc(F)cc1-c1ccc2c(NC(=O)c3ccc(C(=O)NO)cc3)n[nH]c2c1`, the IC50 in experiment [1] was 64 nM; in the experiment on MCF7 it was more than 100000 nM. Consider `CC(C)Oc1cccc(-c2ccc3c(NC(=O)c4ccc(C(=O)NO)cc4)n[nH]c3c2)c1`, for which the figures for the IC50 (in experiment [1]; in the experiment on MCF7) were 78 nM and more than 100000 nM, respectively. As for `O=C(NO)c1ccc(C(=O)Nc2n[nH]c3cc(-c4ccc(Cl)c(F)c4)ccc23)cc1`, the IC50 in experiment [1] was 98 nM; in the experiment on MCF7, more than 100000 nM. For `COc1ccccc1-c1ccc2c(NC(=O)c3ccc(C(=O)NO)cc3)n[nH]c2c1` the same measures were 40 nM and 28000 nM.

Turning to `CCCCN(Cc1ccc(C(=O)NO)cc1)C(=O)Nc1ccccc1` [NEXTURASTAT A], the IC50 with MCF7 was found to be 1400 nM. This lies in the single-digit micromolar range. Regarding `O=C(NO)c1ccc(C(=O)Nc2n[nH]c3cc(-c4ccc(C(F)(F)F)cc4)ccc23)cc1`, the values for the IC50 (in experiment [1]; with MCF7) were 103 nM and more than 100000 nM, respectively. Turning to `COc1cccc(-c2ccc3c(NC(=O)c4ccc(C(=O)NO)cc4)n[nH]c3c2)c1F`, the IC50 in experiment [1] was 58 nM; in the experiment on MCF7, more than 100000 nM. For `O=C(NO)c1ccc(C(=O)Nc2n[nH]c3cc(-c4ccccc4Cl)ccc23)cc1`, the concentration for half-maximal inhibition (IC50) in experiment [1] turned out to be 59 nM; in the experiment with MCF7, 23000 nM. Consider `O=C(NO)c1ccc(C(=O)Nc2n[nH]c3cc(-c4cc(Cl)ccc4Cl)ccc23)cc1`, for which the IC50 in experiment [1] was 178 nM; with MCF7, more than 100000 nM.

Regarding `Cc1cc(C)cc(-c2ccc3c(NC(=O)c4ccc(C(=O)NO)cc4)n[nH]c3c2)c1`, the IC50 in experiment [1] was 250 nM; with MCF7, more than 100000 nM. Taken in the same sequence, the figures for `COc1ccc(-c2ccc3c(NC(=O)c4ccc(C(=O)NO)cc4)n[nH]c3c2)cc1OC` were 33 nM and 15200 nM. Taken in the same sequence, the figures for `O=C(NO)c1ccc(C(=O)Nc2n[nH]c3cc(-c4cc(Cl)cc(Cl)c4)ccc23)cc1` were 293 nM and more than 100000 nM. Turning to `O=C(NO)c1ccc(C(=O)Nc2n[nH]c3cc(-c4ccccc4)ccc23)cc1`, the IC50 in experiment [1] is 38 nM; in the experiment with MCF7, more than 100000 nM. Regarding `COc1cc(OC)cc(-c2ccc3c(NC(=O)c4ccc(C(=O)NO)cc4)n[nH]c3c2)c1`, the values for the IC50 (in experiment [1]; in the experiment on MCF7) were 242 nM and more than 100000 nM, respectively.

Regarding `O=C(NO)c1ccc(C(=O)Nc2n[nH]c3cc(-c4cccc(Cl)c4Cl)ccc23)cc1`, the IC50 in experiment [1] was 157 nM; in the experiment on MCF7, more than 100000 nM.

Regarding `O=C(NO)c1ccc(C(=O)Nc2n[nH]c3cc(-c4cccc(OC(F)(F)F)c4)ccc23)cc1`, the half-inhibitory concentration (IC50) was 218 nM in experiment [1] and more than 100000 nM in the experiment on MCF7. Take `COc1ccc(-c2ccc3c(NC(=O)c4ccc(C(=O)NO)cc4)n[nH]c3c2)cc1`: the IC50 in experiment [1] was found to be 41 nM; with MCF7, 22000 nM. For the compound `O=C(NO)c1ccc(C(=O)Nc2n[nH]c3cc(-c4ccc(Cl)c(Cl)c4)ccc23)cc1`, the IC50 is 147 nM in experiment [1] and more than 100000 nM in the experiment on MCF7.

For `O=C(NO)c1ccc(C(=O)Nc2n[nH]c3cc(-c4ccc(Cl)cc4)ccc23)cc1`, the figures for the IC50 (in experiment [1]; in the experiment on MCF7) were 281 nM and more than 100000 nM, respectively. Taken in the same sequence, the figures for `CCOc1cccc(-c2ccc3c(NC(=O)c4ccc(C(=O)NO)cc4)n[nH]c3c2)c1` were 34 nM and 9000 nM.

Take `COc1cccc(-c2ccc3c(NC(=O)c4ccc(C(=O)NO)cc4)n[nH]c3c2)c1`: the results for the IC50 (in experiment [1]; in the experiment on MCF7) were 132 nM and more than 100000 nM, respectively. On to `CCCOc1cccc(-c2ccc3c(NC(=O)c4ccc(C(=O)NO)cc4)n[nH]c3c2)c1`, for which the IC50 in experiment [1] is 345 nM; in the experiment with MCF7, more than 100000 nM. As to `O=C(NO)c1ccc(C(=O)Nc2n[nH]c3cc(-c4c(Cl)cccc4Cl)ccc23)cc1`, the half-inhibitory concentration (IC50) is 385 nM in experiment [1] and more than 100000 nM in the experiment with MCF7.

What is called IC50 is the concentration needed to halve the response being measured.
